Holding throughout (test): NCI tumour cell line growth inhibition, 48 h
Assay [1] has as its system SW-620 colon.
The test system of assay [2] is LOX IMVI melanoma.
Assay [3] has as its system NCI-H23 lung.
The subject of assay [4] is SNB-19 CNS.
In assay [5] the test system is HCT-116 colon.
The test system of assay [6] is U251 CNS.
Assay [7] has as its system RXF 393 renal.
Assay [8] deals with SK-MEL-28 melanoma.
The subject of assay [9] is SF-268 CNS.
Assay [10] deals with SK-OV-3 ovarian.

Molecules are shown by their SMILES.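 Dose response: 5 concentrations. Exposure: 48 h. Format: 96-well plates. Endpoint: linear interpolation; highest concentration if not reached. GI50 marks 50% less growth. TGI: total growth inhibition.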

As for `CC1(C(=O)O)CCCC1C(=O)O` (centres undefined), the TGI in assay [1], in assay [2], in assay [3], in [4], in assay [5] and in [6] was > 100 µM each time. Also, the TGI in assay [7], in [8] and in assay [9] was > 100 µM each time.

Take `N#Cc1c(-c2ccc(F)cc2)nc(N/N=C/c2c[nH]c3ccccc23)nc1N1CCOCC1`: the GI50 in [1] was 1.58 µM; in assay [2], 3.33 µM; in assay [3], 21.2 µM; in [4] it was 21 µM; in assay [5], 2.17 µM; in [6], 2.16 µM. For the same compound, the GI50 in assay [7] was 1.19 µM; in assay [8], 1.92 µM; in assay [10] it was 8.61 µM; in assay [9], 17 µM. The TGI was 4.69 µM in assay [1]; 11.2 µM in assay [2]; 92.7 µM in [3]; > 100 µM in assay [4]; 17.9 µM in [5]; 17.7 µM in [6]. Also, the TGI in [7] is 3.97 µM; in assay [8], 4.04 µM; in assay [10], 38.9 µM; in [9] it was > 100 µM.

With `CCN1CCC(O)(C(C(=O)O)c2ccccc2)CC1` (centres undefined), the TGI in [1], in assay [2], in assay [3], in assay [4], in assay [6] and in [7] was > 100 µM in each case. In addition, the TGI in assay [8], in assay [10] and in assay [9] was > 100 µM in each case.

`COc1c(Br)cc(CC(N)=O)c(O)c1Br`: the TGI in assay [1], in assay [2], in assay [3], in assay [4], in [5] and in [6] was > 100 µM throughout. Also, the TGI in assay [7], in [8], in assay [10] and in [9] was > 100 µM in each case.

As for `OC1(c2ccc(Cl)cc2)c2ccc3ccccc3c2C2=N[C@H]3CCCC[C@@H]3N21` (some centres undefined), the TGI in assay [1] is > 100 µM; in assay [2] it was 10.5 µM; in [3] it was > 100 µM; in [4] it was > 100 µM; in [5], 20.5 µM; in assay [6] it was 27.9 µM. In addition, the TGI in assay [7] is 20.8 µM; in assay [8], > 100 µM; in [10], 65.3 µM; in assay [9], > 100 µM.

As for `CCC(C(=O)c1ccc(OC)c(OC)c1)N(C(=O)C(F)(F)F)C(C)c1ccccc1` (centres undefined), the TGI in assay [1], in assay [2], in assay [4], in assay [5], in assay [6] and in assay [8] was > 100 µM in each case. In addition, the TGI in assay [10] and in assay [9] was > 100 µM throughout.

Turning to `NC(N)=Nc1ncccc1[N+](=O)[O-]`, the TGI in assay [1] was > 100 µM; in assay [2], > 100 µM; in assay [3], > 100 µM; in assay [4], > 100 µM; in assay [5] it was > 100 µM; in [6], > 31.6 µM. In addition, the TGI in [7], in assay [8], in assay [10] and in [9] was > 100 µM each time.

`COc1cc(/C=C\C(=O)O)ccc1OCc1ccccc1`: the TGI in assay [1], in assay [2], in assay [3], in assay [4], in assay [5] and in [6] was > 100 µM each time. Also, the TGI in assay [7], in assay [8], in [10] and in [9] was > 100 µM throughout.

Turning to `O=c1oc2cc(O)ccc2c(O)c1C(c1ccc(C(c2c(O)c3ccc(O)cc3oc2=O)c2c(O)c3ccc(O)cc3oc2=O)cc1)c1c(O)c2ccc(O)cc2oc1=O`, the TGI in [1], in assay [2], in [3], in [5], in [6] and in assay [7] was > 100 µM each time. Besides, the TGI in assay [8], in assay [10] and in [9] was > 100 µM each time.

Regarding `O=C(N/N=C/c1cc(Br)cc(Br)c1[O-])c1ccccc1O.O=C(N/N=C/c1cc(Br)cc(Br)c1[O-])c1ccccc1O.[Fe+2]`, the TGI came out at 19.7 µM in [1]; 22.7 µM in [2]; 9.66 µM in [3]; 20.4 µM in assay [4]; 10.6 µM in assay [5]; 7.88 µM in assay [6]. For the same compound, the TGI is 20.6 µM in [7], 21.6 µM in assay [8], 13.9 µM in assay [10] and 38.9 µM in assay [9].

As to `O=C(CC1=NCCN1)c1ccccc1`, the TGI in assay [1], in assay [2], in assay [3], in assay [4], in assay [5] and in [6] was > 750 µM in each case. For the same compound, the TGI in [7], in assay [8], in assay [10] and in [9] was > 750 µM each time.

For `O=C1C(Cl)N(c2ccccc2[N+](=O)[O-])C1c1c[nH]c2ccccc12` (centres undefined), the TGI in assay [1], in [3], in assay [4], in assay [5], in [6] and in [7] was > 100 µM in each case. The TGI in assay [8], in assay [10] and in assay [9] was > 100 µM throughout.

Regarding `O=C(Nc1cccc(O)c1)C(=O)C(C(=O)c1ccccc1F)C1OC(=O)c2ccccc21` (centres undefined), the TGI in assay [1] was > 100 µM; in assay [2], 47.1 µM; in assay [3], 88.2 µM; in assay [4] it was 68 µM; in assay [5], 33.9 µM; in [6], 26.9 µM. For the same compound, the TGI in assay [7] was 39.8 µM; in assay [8], 92.9 µM; in assay [10], > 100 µM; in assay [9], 74.7 µM.

The values are drawn from PubChem BioAssay (NCI).
